Reference: patent US9113629B2, “4-amino-6-(4-substituted-phenyl)-picolinates and 6-amino-2-(4-substituted-phenyl)-pyrimidine-4-carboxylates and their use as herbicides” (DOW AGROSCIENCES LLC, priority 2013, dated 2015)
Read-outs that look alike come from different tables or passages of the source.

Key:
[1] = test system: Key Broadleaf Weed and Crop Species; assay: Post-emergent Test II herbicidal activity (Table 5); type: in vivo; details: post-emergence, 336 h, post-emergent, 14 days after application; for pest or weed control at 70 g/ha: 70 g ai/ha; for pest or weed control at 140 g/ha: 140 g ai/ha
Method in brief: (§1)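 Greenhouse post-emergent assay: seedlings (first/second true leaf) in Metro-Mix 360 were sprayed at 187 L/ha at a top rate plus twofold dilutions down to 1/16×; solvent-blank controls were included. Percent visual injury was read at 14 d.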

[2] = test system: Key Grass and Sedge Weeds as well as Grass Crops; assay: Post-emergent Test II herbicidal activity (Table 6); type: in vivo; details: post-emergence, 336 h; for pest or weed control at 70 g/ha: application rate 70 g ai/ha; for pest or weed control at 140 g/ha: application rate 140 g ai/ha
Method in brief: as §1

[3] = ABUTH: velvetleaf (Abutilon theophrasti), read-out: Visual Growth Reduction (%) 14 Days After Application ABUTH
[4] = AMARE: redroot pigweed (Amaranthus retroflexus), read-out: Visual Growth Reduction (%) 14 Days After Application AMARE
[5] = BRSNN: oilseed-rape, canola (Brassica napus), read-out: Visual Growth Reduction (%) 14 Days After Application BRSNN
[6] = CHEAL: lambsquarters (Chenopodium album), read-out: Visual Growth Reduction (%) 14 Days After Application CHEAL
[7] = EPHHL: wild poinsettia (Euphorbia heterophylla), read-out: Visual Growth Reduction (%) 14 Days After Application EPHHL
[8] = HELAN: sunflower (Helianthus annuus), read-out: Visual Growth Reduction (%) 14 Days After Application HELAN
[9] = VIOTR: wild pansy (Viola tricolor), read-out: Visual Growth Reduction (%) 14 Days After Application VIOTR
[10] = Triticum aestivum, TRZSS (wheat), read-out: Visual Growth Reduction (%) 14 Days After Application, TRZSS
[11] = CYPES: yellow nutsedge (Cyperus esculentus), read-out: Visual Growth Reduction (%) 14 Days After Application, CYPES
[12] = DIGSA: crabgrass (Digitaria sanguinalis), read-out: Visual Growth Reduction (%) 14 Days After Application, DIGSA
[13] = ECHCG: barnyardgrass (Echinochloa crus-galli), read-out: Visual Growth Reduction (%) 14 Days After Application, ECHCG
[14] = ORYSA: rice (Oryza sativa), read-out: Visual Growth Reduction (%) 14 Days After Application, ORYSA
[15] = SETFA: giant foxtail (Setaria faberi), read-out: Visual Growth Reduction (%) 14 Days After Application, SETFA
[16] = SORVU: grain sorghum (Sorghum vulgare), read-out: Visual Growth Reduction (%) 14 Days After Application, SORVU
[17] = ZEAMX: maize, corn (Zea mays), read-out: Visual Growth Reduction (%) 14 Days After Application, ZEAMX

Row | SMILES | pest or weed control at 70 g/ha [1, 3] | pest or weed control at 140 g/ha [1, 3] | pest or weed control at 70 g/ha [1, 4] | pest or weed control at 140 g/ha [1, 4] | pest or weed control at 70 g/ha [1, 5] | pest or weed control at 140 g/ha [1, 5] | pest or weed control at 70 g/ha [1, 6] | pest or weed control at 140 g/ha [1, 6] | pest or weed control at 70 g/ha [1, 7] | pest or weed control at 140 g/ha [1, 7] | pest or weed control at 70 g/ha [1, 8] | pest or weed control at 140 g/ha [1, 8] | pest or weed control at 70 g/ha [1, 9] | pest or weed control at 140 g/ha [1, 9] | pest or weed control at 70 g/ha [2, 10] | pest or weed control at 140 g/ha [2, 10] | pest or weed control at 70 g/ha [2, 11] | pest or weed control at 140 g/ha [2, 11] | pest or weed control at 70 g/ha [2, 12] | pest or weed control at 140 g/ha [2, 12] | other results
1 | C=Cc1c(C(=O)O)nc(-c2ccc(C#N)cc2)c(F)c1N [Compound 150] | 45 to 59% | 60 to 74% | 95 to 100% | 95 to 100% | 45 to 59% | 60 to 74% | 85 to 94% | 85 to 94% | 95 to 100% | 95 to 100% | 95 to 100% | 95 to 100% | 0 to 29% | 0 to 29% | 30 to 44% | 45 to 59% | 0 to 29% | 45 to 59% | 0 to 29% | 0 to 29% | pest or weed control at 70 g/ha [2, 13]: 0 to 29%; pest or weed control at 140 g/ha [2, 13]: 0 to 29%; pest or weed control at 70 g/ha [2, 14]: 0 to 29%; pest or weed control at 140 g/ha [2, 14]: 0 to 29%; pest or weed control at 70 g/ha [2, 15]: 0 to 29%; pest or weed control at 140 g/ha [2, 15]: 60 to 74%; pest or weed control at 70 g/ha [2, 16]: 45 to 59%; pest or weed control at 140 g/ha [2, 16]: 45 to 59%; pest or weed control at 70 g/ha [2, 17]: 45 to 59%; pest or weed control at 140 g/ha [2, 17]: 60 to 74%
2 | COC(=O)c1nc(-c2ccc(C#N)c(F)c2)c(C)c(N)c1Cl [Compound 155, Methyl 4-amino-3-chloro-6-(4-cyano-3-fluorophenyl)-5-methylpicolinate] | 0 to 29% | 0 to 29% | 0 to 29% | 0 to 29% | 45 to 59% | 60 to 74% | 85 to 94% | 95 to 100% | 0 to 29% | 0 to 29% | 85 to 94% | 85 to 94% | 0 to 29% | 0 to 29% | 0 to 29% | 0 to 29% | 0 to 29% | 0 to 29% | 0 to 29% | 0 to 29% | pest or weed control at 70 g/ha [2, 13]: 0 to 29%; pest or weed control at 140 g/ha [2, 13]: 0 to 29%; pest or weed control at 70 g/ha [2, 14]: 0 to 29%; pest or weed control at 140 g/ha [2, 14]: 0 to 29%; pest or weed control at 70 g/ha [2, 15]: 0 to 29%; pest or weed control at 140 g/ha [2, 15]: 0 to 29%; pest or weed control at 70 g/ha [2, 16]: 0 to 29%; pest or weed control at 140 g/ha [2, 16]: 0 to 29%; pest or weed control at 70 g/ha [2, 17]: 0 to 29%; pest or weed control at 140 g/ha [2, 17]: 0 to 29%
